PMC6628362, “A New Strategy for Glioblastoma Treatment: In Vitro and In Vivo Preclinical Characterization of Si306, a Pyrazolo[3,4-d]Pyrimidine Dual Src/P-Glycoprotein Inhibitor” (Cancers, 2019)
“Also recorded” adds a separate entry of the source. Where two headings read alike, the source gives them in different places.

Key:
[1] = molecular target: P-gp (Homo sapiens, UniProt P08183); experiment: Rho 123 accumulation assay (P-gp inhibition) in U87-TxR cells; conditions: 30 min
Experimental: At the end of the accumulation period, the cells were pelleted by centrifugation, washed with PBS and placed in cold PBS. The samples were kept on ice in a dark setting until the analysis on CyFlow Space Partec flow-cytometer (Sysmex Partec GmbH, Germany). […] A minimum of 10,000 events was assayed for each sample and the obtained results were analyzed using Summit Dako Software (ver. 4.3, Fort Collins, CO, USA).

[2] = system: A172; experiment: Cell viability, A172 (Table S1); type: cell-based; conditions: Homo sapiens, A 172; A172, 72 h
Experimental: 1. Cell Growth Inhibition by Dasatinib, Si306 and Pro-Si306
GB cell lines BT138, T98G and A172 were treated with Si306 and pro-Si306 at concentrations ranging from 1 to 100 µM, or with DMSO as a control. Cell viability was evaluated 72 h after treatment for T98G and A172 cell lines and after 24 h for BT-138. In table S1 the IC50 values are reported.
Table S1. Sensitivity of glioblastoma multiforme (GBM) cells to Si306 and pro-Si306 expressed as IC50 […]
Figure S1. Rho 123 accumulation in U87-TxR cells treated with increasing concentrations of TQ (A), Dex-VER (B), Si306 (C) and pro-Si306 (D).
(1 picture or pasted object on this page, not shown here)

[3] = Brain and tissue distribution of Si306 in mice; type: in vivo, BALB/C mice; conditions: for Tmax / Kp / AUC(0-inf) / Cmax / half-life / AUC(0-t) / MRT inf: male, BALB/C, mouse; for Tmax / AUC(0-inf) / Cmax / half-life / AUC(0-t) / MRT inf: brain; for Kp: brain/plasma, read-out: AUC brain to plasma ratio; for AUC(0-t): read-out: AUC 0→24 h; for MRT inf: read-out: MRT 0→∞
Description: Naive male BALB/C mice (weight 20 ± 2 g) were ordered from Charles River (Milan, Italy). All animals were pathogen free and approximately 4–6 weeks old when they arrived. The adaption period to the environment was not less than seven days. All the procedures used on animals in this study were approved by Institutional Animal Use and Care Committee at Università Cattolica del S. Cuore, Rome and Università degli Studi di Siena and authorized by the Italian Ministry of Health, according to Legislative Decree 116/92, which implemented the European Directive 86/609/EEC on laboratory animal protection in Italy. Methods for all the conducted experiments were performed in accordance with regulations, standards and guidelines of the Animal Use and Care Committee of Università Cattolica del S. Cuore, Rome and Università degli Studi di Siena.
Si306 was dissolved in a mixture of Tween80 (10% v/v), benzyl alcohol (1% v/v) and a 10 mM solution of citric acid. The compound was administered intravenously as a single dose of 25 mg/kg in 200 μL of volume. At several time points (0.08, 0.25, 0.5, 1, 2, 4, 8, 24 h), after drug administration, mice were treated i.p. with heparin (5000 U/kg) and sacrificed under CO2. Five animals were used for each time point. Blood, brain, liver and kidneys were collected for the following quantitative analysis. Approximately 500–600 μL of blood was collected from each animal and transferred to a tube containing 10 μL of heparin and mixed briefly.
For the oral PK studies, mice received a single dose of 50 mg/kg of Si306 (dissolved in the same vehicle used for i.v. studies) in 400 μL of final volume by gavage. At nine time-points (0.25, 0.5, 1, 1.5, 2, 3, 4, 8, 24 h) after administration, mice were sacrificed under CO2. Blood and organs were collected and analyzed by LC-MS. The pharmacokinetic parameters, including area under concentration-time curve (AUC), maximum plasma concentration (Cmax), half-time (t1/2), apparent volume of distribution (V), plasma clearance (CL) and mean residence time (MRT), were calculated by non-compartmental analysis using PKSolver software (ver. 1.0, Nanjing, China).
Blood samples were centrifuged at 5000 rpm for 20 min to separate the plasma fraction, which was subsequently collected in a test tube. Acetonitrile (1 mL, with Si34 as internal standard at the concentration of 5 μg/mL) was added to each sample to denature proteins. Samples were centrifuged at 5000 rpm for 20 min, and the supernatant was recovered, dried under vacuum, solubilized again in methanol (100 μL), and analyzed. Brain and the other organs were homogenized using a T10 basic ULTRA-TURRAX® homogenizer (Bioclass, Pistoia, Italy); in order to extract the compound from the tissue, acetonitrile internal standard solution was added, and the homogenate was centrifuged at 5000 rpm for 20 min. The supernatant was recovered, filtered and analyzed by LC-MS. The quantification of each compound was performed by reference to the appropriate calibration curve. Representative LC-MS chromatograms for Si306 and for Si34 are reported in Figure S2 and Figure S3 respectively.

[4] = molecular target: Human Serum Albumin (HSA) (Homo sapiens, UniProt P02768); experiment: Binding fluorimetric assay, HSA; type: in vitro ADME
Chain of Human Serum Albumin (HSA) (P02768 25-609): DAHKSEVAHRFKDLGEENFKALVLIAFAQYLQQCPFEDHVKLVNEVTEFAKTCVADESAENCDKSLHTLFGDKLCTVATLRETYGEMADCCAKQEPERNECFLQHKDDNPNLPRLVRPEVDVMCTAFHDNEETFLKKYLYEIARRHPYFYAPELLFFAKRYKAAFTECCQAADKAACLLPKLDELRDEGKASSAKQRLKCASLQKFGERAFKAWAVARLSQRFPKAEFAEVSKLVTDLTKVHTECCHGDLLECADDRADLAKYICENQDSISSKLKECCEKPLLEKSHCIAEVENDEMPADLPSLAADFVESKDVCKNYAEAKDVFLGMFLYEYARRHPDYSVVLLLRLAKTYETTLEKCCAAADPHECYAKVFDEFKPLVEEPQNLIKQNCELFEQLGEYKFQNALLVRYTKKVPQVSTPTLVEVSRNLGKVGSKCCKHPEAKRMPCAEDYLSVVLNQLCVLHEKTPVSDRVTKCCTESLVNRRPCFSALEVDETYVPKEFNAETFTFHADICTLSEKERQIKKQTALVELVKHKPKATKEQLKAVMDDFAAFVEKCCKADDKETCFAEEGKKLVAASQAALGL
Experimental: In order to determine the binding affinity for Si306 and pro-Si306 to HSA (human serum albumin) and AGP (alpha-1-acid glycoprotein), the protein fluorescence has been monitored by spectroscopy. The quantitative analysis was performed using black 96 multiwell plates: in each well, a fixed concentration of HSA or AGP (10 µM in phosphate buffer 1 mM) was added with different amounts of the tested compound (0.1 µM to 500 µM). Plates were gently shacked and after 30 min at room temperature for equilibration, spectra were recorded from 300 to 400 nm, after excitation at 295 nm, by using a Perkin Elmer EnVision Multilabel Reader 2014 spectrofluorimeter. Finally, spectra were acquired with EnVision Manager ver.1.13 software (Walthman, MA, USA). The obtained non fluorescence quenching percentages were plotted against drug concentrations and the relative KD values were calculated using GraphPad software (version 6.0).

[5] = system: U87 cells; design: method as in PMID 28650650; conditions: single oral treatment, mice orthotopically injected with U87 cells; cited from earlier work
[6] = 10 µM HSA, fluorescence quenching

Chain of P-gp (P08183 whole entry): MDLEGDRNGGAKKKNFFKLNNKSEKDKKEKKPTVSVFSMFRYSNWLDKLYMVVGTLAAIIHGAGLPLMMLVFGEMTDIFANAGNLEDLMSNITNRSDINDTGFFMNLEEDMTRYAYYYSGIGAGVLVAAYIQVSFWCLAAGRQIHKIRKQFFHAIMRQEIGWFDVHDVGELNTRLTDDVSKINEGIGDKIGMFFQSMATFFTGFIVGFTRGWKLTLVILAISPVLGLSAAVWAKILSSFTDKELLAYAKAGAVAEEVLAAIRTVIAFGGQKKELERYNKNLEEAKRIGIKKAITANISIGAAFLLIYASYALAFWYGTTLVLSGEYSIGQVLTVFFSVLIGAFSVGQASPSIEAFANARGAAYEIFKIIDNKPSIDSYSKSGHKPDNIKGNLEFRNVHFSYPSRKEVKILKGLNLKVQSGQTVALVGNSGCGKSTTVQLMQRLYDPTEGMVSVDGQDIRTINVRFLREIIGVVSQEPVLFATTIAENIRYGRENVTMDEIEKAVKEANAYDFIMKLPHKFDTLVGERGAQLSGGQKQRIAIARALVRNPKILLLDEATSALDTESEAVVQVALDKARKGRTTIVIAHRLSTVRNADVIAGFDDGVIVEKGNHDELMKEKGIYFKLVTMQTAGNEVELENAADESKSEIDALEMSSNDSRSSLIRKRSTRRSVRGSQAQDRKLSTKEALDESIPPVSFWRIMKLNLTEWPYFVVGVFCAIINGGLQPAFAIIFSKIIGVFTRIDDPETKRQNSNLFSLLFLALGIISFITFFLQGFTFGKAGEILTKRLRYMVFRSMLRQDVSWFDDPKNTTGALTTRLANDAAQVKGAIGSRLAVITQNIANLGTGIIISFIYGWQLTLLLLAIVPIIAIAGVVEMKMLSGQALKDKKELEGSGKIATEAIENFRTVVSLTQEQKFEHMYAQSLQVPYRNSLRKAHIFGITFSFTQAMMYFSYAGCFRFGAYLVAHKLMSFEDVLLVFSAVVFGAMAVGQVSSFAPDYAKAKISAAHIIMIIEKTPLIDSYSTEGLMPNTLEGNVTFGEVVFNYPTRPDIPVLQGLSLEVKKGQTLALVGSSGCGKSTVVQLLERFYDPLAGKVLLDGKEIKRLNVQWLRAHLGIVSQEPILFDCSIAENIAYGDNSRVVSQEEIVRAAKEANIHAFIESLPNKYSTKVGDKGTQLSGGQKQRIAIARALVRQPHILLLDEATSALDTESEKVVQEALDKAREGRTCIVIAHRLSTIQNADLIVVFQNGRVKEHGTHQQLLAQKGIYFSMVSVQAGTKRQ

## ClC(Cn1ncc2c(Nc3cccc(Br)c3)nc(SCCN3CCOCC3)nc21)c1ccccc1 (centres unmarked) [Si306]
[1]; 5 µM
  P-gp activity (Rho 123 intracellular accumulation): considerably inhibited P-gp activity; also recorded: significant suppression of P-gp activity
[1]; IC50 of P-gp inhibition, Rho 123 accumulation
  IC50: 8.5 µM
[2]
  IC50: 1690 ± 600 nM
[3]; i.v., 25 mg/kg
  maximum concentration into the brain: 2.94 µg/g
[3]; iv, 25 mg/kg, i.v., 25 mg/kg, read-out: Tmax
  Tmax: 4.8 min
[3]; iv, 25 mg/kg, i.v., 25 mg/kg, read-out: time of maximum concentration into the brain (converted)
  Tmax: 5 min
[3]; po, 50 mg/kg, p.o., 50 mg/kg, read-out: Tmax
  Tmax: 30 min
[3]; po, 50 mg/kg, p.o., 50 mg/kg, read-out: time of maximum concentration into the brain (converted)
  Tmax: 30 min
[3]; iv, 25 mg/kg
  Kp: 0.095
  AUC(0-inf): 2150 ng·h/mL
  Cmax: 2940 ng/g
  half-life: 158 min
[3]; oral route, 50 mg/kg
  Kp: 1.19
[3]; iv, i.v., 25 mg/kg
  AUC(0-t): 2140 ng·h/mL
  MRT inf: 1.48 h
[3]; po, 50 mg/kg
  AUC(0-inf): 18000 ng·h/mL
  Cmax: 10600 ng/g
  half-life: 126 min
[3]; po, p.o., 50 mg/kg
  AUC(0-t): 18000 ng·h/mL
  MRT inf: 1.2 h
[3]; p.o. 50 mg/kg vs i.v. 25 mg/kg
  AUC brain/plasma, fold higher p.o. with respect to i.v.: 12 fold
[3]; p.o., 50 mg/kg
  maximum concentration into the brain: 10.65 µg/g
[4]; [6]
  BMAX: 61.05 ± 2.8
  Kd: 350 ± 100 nM
[4]; HSA
  affinity for albumin, fold greater than pro-Si306: 60 fold
[5]
  prolongation of survival: 30%
